According to US7026350B2, “Water-soluble drugs and methods for their production” (The United States of America as represented by the …, priority 1998, dated 2006):
Read-outs that look alike come from different tables or passages of the source. Blank lines part the entries; values can stand above or below the molecule they belong to.

Columns and labels:
N87 cells = assay: N87 proliferation measured by tritiated-thymidine incorporation; assay type: cell-based
Description: N87 cells were exposed to the 17-demethoxy-17-aminoderivative of geldanamycin indicated in Table 1 below, and the concentration at which the proliferation of the N87 cells was inhibited by 50% was determined in nanomolar units.

HuT102 cells = assay: Internalization of radiolabeled antibody by HuT102 cells; assay type: cell-based; details: cells washed with dilute acid
Description: This example employs three antibodies, e21, AE1 (from Landolfi, Protein Design Labs, California), and anti-Tac (i.e., Zenapax from Hoffman-LaRoche, Inc., Nutley, N.J.). The antibodies e21 and AE1 bind Her2 with high affinity, and anti-Tac binds CD25 with high affinity. All three antibodies were radiolabeled and incubated with cells expressing the respective ligands on their cell surfaces (N87 cells for e21 and AE1 and HuT102 cells for anti-Tac). Both N87 cells and HuT102 cells are cancer cells that are known to be sensitive to the effects of geldanamycin. (HuT102 cells are cultured cells from an ATL patient available from the inventor's laboratories.) The cells were washed with dilute acid to remove unincorporated radiolabel, and the amount of radiolabel remaining in the cells was measured as an indication of the amount of antibody internalized.

[1] = tritiated-thymidine incorporation, read-out: concentration that inhibited 50% of the N87 proliferation

solubility in water (Solubility in water): water-soluble
Molecule: 17-cys-GMB-aminopropylaminogeldanamycin [compound 4]

Molecule: COC1C=CC=C(C)C(=O)NC2=CC(=O)C(NCCCN)=C(CC(C)CC(OC)C(O)C(C)C=C(C)C1OC(N)=O)C2=O (centres unmarked) [17-aminopropylamino-geldanamycin, 17-aminopropylaminogeldanamycin]
IC50 (N87 cells; [1]): 180 nM

Molecule: COC1=C2C[C@@H](C)C[C@H](OC)[C@H](O)[C@@H](C)/C=C(\C)[C@H](OC(N)=O)[C@@H](OC)/C=C\C=C(/C)C(=O)NC(=CC1=O)C2=O [geldanamycin]
IC50 (N87 cells; Table 1, read-out: IC50 (nM), proliferation of N87 cells inhibited by 50%): 8.4 nM
IC50 (N87 cells; [1]): 8 nM

B1: anti-Tac: anti-Tac (i.e., Zenapax from Hoffman-LaRoche), binds CD25 with high affinity (antibody, chains of the INN, looked up, V domains shown)
VH: QVQLVQSGAEVKKPGSSVKVSCKASGYTFTSYRMHWVRQAPGQGLEWIGYINPSTGYTEYNQKFKDKATITADESTNTAYMELSSLRSEDTAVYYCARGGGVFDYWGQGTLVTVSS
VL: DIQMTQSPSTLSASVGDRVTITCSASSSISYMHWYQQKPGKAPKLLIYTTSNLASGVPARFSGSGSGTEFTLTISSLQPDDFATYYCHQRSTYPLTFGQGTKVEVK
radiolabel taken up by HuT102 cells (antibody internalized) (HuT102 cells): no significant quantity
